Data set [1] deals with bacteria. Conditions: known compounds, cited from earlier work.
A further data set concerns gram-positive bacteria. Put plainly: Antibacterial activity against gram-positive bacteria (in words). It counts as cell-based. The following applies: for antibacterial activity in vitro against gram-positive bacteria: e.g. Staphylococcus aureus, Staph. 11631, Staph. W., Streptococcus pyogenes C, Strep. pyogenes C-203, Bacillus subtilis.
Data set [2] has as its system bacteria which are resistant to other antibacterial agents. In words: Antibacterial activity against resistant bacteria (in words). It counts as cell-based. Conditions: resistant to penicillin, penicillinase-resistant penicillins, tetracycline, macrolides such as erythromycin, lincomycin.
Data set [3] deals with Staphylococcus aureus Strain 209B. In words: Microbiological Activity (in vitro), Staphylococcus aureus Strain 209B. It counts as cell-based. The following applies: STRAIN209B.
Data set [4] concerns Staphylococcus aureus Strain Gray. Put plainly: Microbiological Activity (in vitro), Staphylococcus aureus Strain Gray. Format: cell-based.
The subject of data set [5] is Staphylococcus aureus Strain 59N. In words: Microbiological Activity (in vitro), Staphylococcus aureus Strain 59N. It counts as cell-based. The following applies: STRAIN59N.
For data set [6], the system named is Staphylococcus aureus Strain Ziegler. In words: Microbiological Activity (in vitro), Staphylococcus aureus Strain Ziegler. Format: cell-based.
For data set [7], the system named is Staphylococcus aureus Strain Wood. Put plainly: Microbiological Activity (in vitro), Staphylococcus aureus Strain Wood. Format: cell-based.
Data set [8] is described as follows: Peak Serum Levels in Dogs. Format: in vivo, dog. Conditions: for Peak Serum Levels in Dogs: 10 mg/kg i.m., single dose, agar diffusion assay of serum. As to the method: In determining peak serum levels, the animal tested (e.g. dog) is given a single dose of 10 mg/kg of the everninomicin D derivative, blood samples are taken periodically, and the serum thereof is assayed for antibacterial activity by an agardiffusion-assay as described by Weinstein et al., Antimicrobial Agents and Chemotherapy, p. 24 (1964).
(In general: In agar diffusion tests the substance spreads into inoculated agar from a disc or well.)

The test system of another data set is gram-negative bacteria. In words: Antibacterial activity against gram-negative bacteria (in words). It counts as cell-based. Conditions: certain gram-negative bacteria.
Data set [9] has as its system bacteria. In words: Antibacterial activity, general (in words). The following applies: when administered by injection.
The next data set can be described thus: pKa. Format: physicochemical.

≈ marks a conversion by molar mass, not a printed value. Counter-ions that a name gives are not always drawn. Like-named read-outs stand apart in the source and are kept apart here.

As usually defined, the MIC is the smallest concentration in the dilution series that meets the test's criterion for growth inhibition. Broadly, the pKa is the pH at which an ionisable group is half protonated. Lower therefore signals a group that gives up its proton readily.

Turning to `COCC1OC(OC2OCC3OC4(OCC(O)(C(C)OC)C5OCOC54)OC3C2OC)C(OC)C(O)C1OC1OC(C)C(OC)C(OC2OC(C)C3OC4(CC(O)C(OC5CC(OC6CC(C)(N=O)C(OC)C(C)O6)C(OC(=O)c6c(C)c(Cl)c(O)c(Cl)c6OC)C(C)O5)C(C)O4)OC3(C)C2O)C1O` (stereo not shown) [nitrosoeverninomicin B], the antibacterial activity result in the data set on bacteria [1] (U.S. Pat. No. 3,915,956) is recorded as “exhibit antibacterial activity”.

With `COCC1OC(OC2OCC3OC4(OCC(O)C5OCOC54)OC3C2OC)C(OC)C(O)C1OC1OC(C)C(OC)C(OC2CC3(C)OC4(CC(O)C(OC5CC(OC6CC(C)(NO)C(OC)C(C)O6)C(OC(=O)c6c(C)c(Cl)c(O)c(Cl)c6OC)C(C)O5)C(C)O4)OC3C(C)O2)C1O` (stereo not shown) [hydroxylaminoeverninomicin C], in the data set on bacteria [1] (U.S. Pat. No. 3,915,956), the antibacterial activity result is listed as “exhibit antibacterial activity”.

Take `COCC1OC(OC2OCC3OC4(OCC(O)C5OCOC54)OC3C2OC)C(OC)C(O)C1OC1OC(C)C(OC)C(OC2CC3(C)OC4(CC(O)C(OC5CC(OC6CC(C)(N=O)C(OC)C(C)O6)C(OC(=O)c6c(C)c(Cl)c(O)c(Cl)c6OC)C(C)O5)C(C)O4)OC3C(C)O2)C1O` (stereo not shown) [nitrosoeverninomicin C]: the antibacterial activity entry in the data set on bacteria [1] (U.S. Pat. No. 3,915,956) is on record as “exhibit antibacterial activity”.

Consider `COCC1OC(OC2OCC3OC4(OCC(O)(C(C)OC)C5OCOC54)OC3C2OC)C(OC)C(O)C1OC1OC(C)C(OC)C(OC2OC(C)C3OC4(CC(O)C(OC5CC(O)C(OC(=O)c6c(C)c(Cl)c(O)c(Cl)c6OC)C(C)O5)C(C)O4)OC3(C)C2O)C1O` (stereo not shown) [desevernitrose everninomicin B], for which the antibacterial activity entry with bacteria [1] (U.S. Pat. No. 3,920,629) was “having anti-bacterial activity”.

Consider `COCC1OC(OC2OCC3OC4(OCC(O)C5OCOC54)OC3C2OC)C(OC)C(O)C1OC1OC(C)C(OC)C(OC2CC3(C)OC4(CC(O)C(OC5CC(OC6CC(C)(O)C(OC)C(C)O6)C(OC(=O)c6c(C)c(Cl)c(O)c(Cl)c6OC)C(C)O5)C(C)O4)OC3C(C)O2)C1O` (stereo not shown) [everninomicin C-7], for which, in the data set with gram-positive bacteria, the “inhibiting the growth of gram-positive bacteria” value (from here on “inhibiting the growth”) is “antibacterial activity against gram-positive bacteria” and the “antibacterial activity in vitro against gram-positive bacteria” value (from here on “antibacterial activity in vitro”) was “narrow spectrum antibacterial activity in vitro against gram-positive bacteria”. Besides, the “antibacterial activity against resistant bacteria” value in data set [2] is “exhibit antibacterial activity against bacteria which are resistant to other antibacterial agents”.

On to `COCC1OC(OC2OCC3OC4(OCC(O)(C(C)OC)C5OCOC54)OC3C2OC)C(OC)C(O)C1OC1OC(C)C(OC)C(OC2OC(C)C3OC4(CC(O)C(OC5CC(OC6CC(C)(NO)C(OC)C(C)O6)C(OC(=O)c6c(C)c(Cl)c(O)c(Cl)c6OC)C(C)O5)C(C)O4)OC3(C)C2O)C1O` (stereo not shown) [hydroxylaminoeverninomicin B], for which, in the data set with bacteria [1] (U.S. Pat. No. 3,915,956), the antibacterial activity entry is given as “exhibit antibacterial activity”.

`COCC1OC(OC2OCC3OC4(OCC(O)(C(C)OC)C5OCOC54)OC3C2OC)C(OC)C(O)C1OC1OC(C)C(OC)C(OC2CC3(C)OC4(CC(O)C(OC5CC(OC6CC(C)(NO)C(OC)C(C)O6)C(OC(=O)c6c(C)c(Cl)c(O)c(Cl)c6OC)C(C)O5)C(C)O4)OC3C(C)O2)C1O` (stereo not shown) [hydroxylaminoeverninomicin D]: in the data set on bacteria [1] (U.S. Pat. No. 3,915,956), the antibacterial activity result is on record as “exhibit antibacterial activity”.

With `COCC1OC(OC2OCC3OC4(OCC(O)(C(C)OC)C5OCOC54)OC3C2OC)C(OC)C(O)C1OC1OC(C)C(OC)C(OC2CC3(C)OC4(CC(O)C(OC5CC(OC6CC(C)(O)C(OC)C(C)O6)C(OC(=O)c6c(C)c(Cl)c(O)c(Cl)c6OC)C(C)O5)C(C)O4)OC3C(C)O2)C1O` [everninomicin D-7], the minimal inhibitory concentration (MIC) was found to be 0.3 µg/mL (≈ 0.199 µM) in [3]; 0.3 µg/mL (≈ 0.199 µM) in data set [4]; 0.075 µg/mL (≈ 0.0497 µM) in data set [5]; 0.75 µg/mL (≈ 0.497 µM) in data set [6]; 0.75 µg/mL (≈ 0.497 µM) in [7]. For the same compound, in data set [8], the “Peak Serum Levels in Dogs” value is recorded as 15-60. Further, the “absorption and serum levels in the dog” value in [8] (when administered by injection) is “rapidly absorbed, producing high serum levels in the dog”. Further, the “inhibiting the growth” value in the data set with gram-positive bacteria is listed as “particularly effective in inhibiting the growth of gram-positive bacteria”. For the same compound, the “antibacterial activity in vitro” value in the data set with gram-positive bacteria is “narrow spectrum antibacterial activity in vitro against gram-positive bacteria”. Further, in the data set on gram-negative bacteria, the “susceptibility of gram-negative bacteria” value was “certain gram-negative bacteria are also susceptible”. Moreover, the “antibacterial activity against resistant bacteria” value in data set [2] is “exhibit antibacterial activity against bacteria which are resistant to other antibacterial agents”. Moreover, the “antibacterial activity relative to precursor hydroxylaminoeverninomicin D” value in the data set on bacteria [9] is reported as “antibacterial activity comparable to that of the precursor hydroxylaminoeverninomicin D”.

With `COCC1OC(OC2OCC3OC4(OCC(O)(C(C)OC)C5OCOC54)OC3C2OC)C(OC)C(O)C1OC1OC(C)C(OC)C(OC2CC3(C)OC4(CC(O)C(OC5CC(O)C(OC(=O)c6c(C)c(Cl)c(O)c(Cl)c6OC)C(C)O5)C(C)O4)OC3C(C)O2)C1O` (stereo not shown) [desevernitrose everninomicin D], the pKa in “pKa” is 7.5. For the same compound, the antibacterial activity result in the data set on bacteria [1] (U.S. Pat. No. 3,920,629) was “having anti-bacterial activity”.

For `COCC1OC(OC2OCC3OC4(OCC(O)C5OCOC54)OC3C2OC)C(OC)C(O)C1OC1OC(C)C(OC)C(OC2CC3(C)OC4(CC(O)C(OC5CC(O)C(OC(=O)c6c(C)c(Cl)c(O)c(Cl)c6OC)C(C)O5)C(C)O4)OC3C(C)O2)C1O` (stereo not shown) [desevernitrose everninomicin C], the antibacterial activity entry in the data set with bacteria [1] (U.S. Pat. No. 3,920,629) is reported as “having anti-bacterial activity”.

For the compound `COCC1OC(OC2OCC3OC4(OCC(O)(C(C)OC)C5OCOC54)OC3C2OC)C(OC)C(O)C1OC1OC(C)C(OC)C(OC2CC3(C)OC4(CC(O)C(OC5CC(OC6CC(C)(NO)C(OC)C(C)O6)C(OC(=O)c6c(C)c(Cl)c(O)c(Cl)c6OC)C(C)O5)C(C)O4)OC3C(C)O2)C1O` (stereo not shown) [Hydroxylaminoeverninomicin D Sodium salt, reference compound], the MIC is 0.06 µg/mL in [3]; 0.06 µg/mL in [4]; 0.03 µg/mL in data set [5]; 0.06 µg/mL in data set [6]; 0.06 µg/mL in data set [7]. Further, the “Peak Serum Levels in Dogs” value in [8] is given as 20-30.

With `COCC1OC(OC2OCC3OC4(OCC(O)(C(C)OC)C5OCOC54)OC3C2OC)C(OC)C(O)C1OC1OC(C)C(OC)C(OC2OC(C)C3OC4(CC(O)C(OC5CC(OC6CC(C)(O)C(OC)C(C)O6)C(OC(=O)c6c(C)c(Cl)c(O)c(Cl)c6OC)C(C)O5)C(C)O4)OC3(C)C2O)C1O` (stereo not shown) [everninomicin B-7], in the data set on gram-positive bacteria, the “inhibiting the growth” value is listed as “antibacterial activity against gram-positive bacteria” and the “antibacterial activity in vitro” value was “narrow spectrum antibacterial activity in vitro against gram-positive bacteria”. Further, the “antibacterial activity against resistant bacteria” value in [2] is “exhibit antibacterial activity against bacteria which are resistant to other antibacterial agents”.

Take `COCC1OC(OC2OCC3OC4(OCC(O)(C(C)OC)C5OCOC54)OC3C2OC)C(OC)C(O)C1OC1OC(C)C(OC)C(OC2CC3(C)OC4(CC(O)C(OC5CC(OC6CC(C)(N=O)C(OC)C(C)O6)C(OC(=O)c6c(C)c(Cl)c(O)c(Cl)c6OC)C(C)O5)C(C)O4)OC3C(C)O2)C1O` (stereo not shown) [nitrosoeverninomicin D]: the antibacterial activity result in the data set on bacteria [1] (U.S. Pat. No. 3,915,956) was “exhibit antibacterial activity”.

The values above are taken from patent US4027016A, “Everninomicin antibacterial derivatives, electrochemical method for their manufacture, method for their use as antibacterial agents, and pharmaceutical compositions useful therefor” (Schering Corporation, priority 1976, dated 1977).
